# According to PubChem BioAssay (NCI):
#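 48-hour exposure; five concentrations; linearly interpolated endpoints. Definition used: TGI = concentration required for complete inhibition of growth.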
# Key:
# Experiment in all cases: growth of human tumour cells (NCI), 48 h
# A498 renal = tested on: A498 renal
# EKVX NSCLC = tested on: EKVX NSCLC
# HL-60(TB) leukemia = tested on: HL-60(TB) leukemia
# HOP-62 NSCLC = tested on: HOP-62 NSCLC
# M14 melanoma = tested on: M14 melanoma
# NCI-H226 lung = tested on: NCI-H226 lung
# SN12C renal = tested on: SN12C renal
# SW-620 colon = tested on: SW-620 colon
# T-47D breast = tested on: T-47D breast
# U251 CNS = tested on: U251 CNS
SMILES,TGI (A498 renal) [µM],TGI (EKVX NSCLC) [µM],TGI (HL-60(TB) leukemia) [µM],TGI (HOP-62 NSCLC) [µM],TGI (M14 melanoma) [µM],TGI (NCI-H226 lung) [µM],TGI (SN12C renal) [µM],TGI (SW-620 colon) [µM],TGI (T-47D breast) [µM],TGI (U251 CNS) [µM]
Cc1csc(NCc2ccc(Cl)cc2)n1,> 100,> 100,> 100,> 100,> 100,> 100,> 100,> 100,> 100,> 100
CC(=O)CC(O)(C(F)(F)Cl)C(F)(Cl)Cl (stereo not given),> 10,> 10,> 10,> 10,> 10,> 10,> 10,> 10,> 10,> 10
CCCNC(=O)c1cc(OC)c(OC)cc1NC(=O)C12CC3CC(CC(C3)C1)C2,31.6,32.3,> 100,34.7,28.5,55,29.6,> 100,40.4,30.7
COc1ccc2cc(CNCCCCCCNC(=O)Nc3cccc4ccccc34)ccc2c1,> 100,> 100,> 100,> 100,> 100,> 100,> 100,> 100,> 100,> 100
O=C1c2ccccc2CC12Cc1ccc3c(c1C2=O)CCCC3 (stereo not given),> 100,> 100,> 100,> 100,> 100,> 100,> 100,> 100,9.59,> 100
Cc1ccc(NC(c2ccccc2)P(=O)(c2ccccc2)c2ccccc2)cc1 (stereo not given),> 100,> 100,> 100,> 100,> 100,> 100,> 100,> 100,> 100,> 100
O=C(OC1C#CCSCC#C/C=C\1)c1ccc2c(c1)C(=O)c1ccccc1C2=O (stereo not given),> 100,> 100,> 100,42.8,> 100,> 100,> 100,> 100,> 100,55.9
NC1=Nc2ncccc2C(=O)NN1,> 10,> 10,> 10,> 10,> 10,> 10,> 10,> 10,> 10,> 10
CCOC(=O)/C(C(=O)c1ccc[nH]1)=C1/CCCN1C,> 100,> 100,> 100,> 100,> 100,> 100,> 100,> 100,> 100,> 100
Clc1ccc(Cc2nc3cc4ccccc4cc3[nH]2)cc1Cl,27.7,78.2,59.2,82.9,75.3,78,52.2,41.3,39.7,78.3
N#CCCN(C(=O)Nc1ccc(NC(=O)N(CCC#N)c2ccccc2)cc1)c1ccccc1,> 100,> 100,> 100,> 100,> 100,> 100,> 100,> 100,> 100,> 100
CCC(CCCC[C@H]1CC[C@@H]2CC(=O)C[C@H]12)OC (stereo not given in full),> 100,> 100,> 100,> 100,> 100,> 100,> 100,> 100,> 100,> 100
CC[C@@]1(O)C(=O)OCc2c1cc1n(c2=O)Cc2c-1nc1ccc(N)cc1c2CC[Si](C)(C)C,0.0189,3.23,< 0.01,0.368,< 0.0499,< 0.01,< 0.01,14.6,20.6,0.543
Cc1[nH]c2c(C)c3c([nH]c4ccc(Cl)cc43)c(C)c2c(=O)c1C,51.9,> 100,9.64,19.8,> 100,24.2,15.1,> 100,16.8,23.3
O=C(OC[C@H]1C[C@H]2C(=O)OCCC[C@H]2O1)c1ccccc1,> 100,> 100,> 100,> 100,> 100,> 100,> 100,> 100,> 100,> 100
C1CCC(CC2CCC(NC3=NCCO3)CC2)CC1 (stereo not given),53.3,54.4,34,39.4,33.8,34.3,42.5,41.7,54.3,33.3
O=C1OCOC2(CCCC2)C1c1ccccc1 (stereo not given),> 100,> 100,> 100,> 100,> 100,> 100,> 100,> 100,> 100,> 100
